From PubChem BioAssay AID192 (DTP/NCI, 2004)
“And” between values parts separate entries of the source, which are not always exact repeats. Equal values may be shown once. Toxic doses and inconclusive results are not listed. Peptide text beside a SMILES is read from it. * marks the point of attachment. Cbz = O=C(OCc1ccccc1)*; CH2Cl = ClC*

Tested on: BDF1 mice, B16 melanoma ip, median survival T/C
Assay: NCI In Vivo Anticancer Drug Screen. Data for tumor model B16 Melanoma (intraperitoneal) in B6D2F1 (BDF1) mice
Details: endpoint: median survival time, higher = longer survival
How it was run: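 Compounds were tested in mice carrying transplantable tumors. Survival or tumor size was recorded, and each value is the treated-group measurement (T) divided by that of the vehicle-treated control group (C).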

[1] = dose: 6.25 mg/kg/injection, schedule: Q01DX009 (ip), vehicle: saline with Tween-80
[2] = dose: 12.5 mg/kg/injection, schedule: Q01DX009 (ip), vehicle: saline with Tween-80
[3] = dose: 25.0 mg/kg/injection, schedule: Q01DX009 (ip), vehicle: saline with Tween-80
[4] = dose: 6.25 mg/kg/injection, schedule: Q01DX009 (ip), vehicle: Klucel (hydroxypropylcellulose) (HPC)
[5] = dose: 12.5 mg/kg/injection, schedule: Q01DX009 (ip), vehicle: Klucel (hydroxypropylcellulose) (HPC)
[6] = dose: 50.0 mg/kg/injection, schedule: Q01DX009 (ip), vehicle: Klucel (hydroxypropylcellulose) (HPC)
[7] = dose: 6.25 mg/kg/injection, schedule: Q01DX009 (ip), vehicle: saline
[8] = dose: 25.0 mg/kg/injection, schedule: Q01DX009 (ip), vehicle: saline
[9] = dose: 50.0 mg/kg/injection, schedule: Q04DX003 (ip), vehicle: saline
[10] = dose: 25.0 mg/kg/injection, schedule: Q01DX009 (ip), vehicle: Klucel (hydroxypropylcellulose) (HPC)
[11] = dose: 100.0 mg/kg/injection, schedule: Q01DX009 (ip), vehicle: Klucel (hydroxypropylcellulose) (HPC)
[12] = dose: 200.0 mg/kg/injection, schedule: Q01DX009 (ip), vehicle: Klucel (hydroxypropylcellulose) (HPC)
[13] = dose: 200.0 mg/kg/injection, schedule: Q04DX003 (ip), vehicle: Klucel (hydroxypropylcellulose) (HPC)
[14] = dose: 400.0 mg/kg/injection, schedule: Q04DX003 (ip), vehicle: Klucel (hydroxypropylcellulose) (HPC)
[15] = dose: 400.0 mg/kg/injection, schedule: Q01DX009 (ip), vehicle: Klucel (hydroxypropylcellulose) (HPC)
[16] = dose: 50.0 mg/kg/injection, schedule: Q01DX009 (ip), vehicle: saline with Tween-80
[17] = dose: 100.0 mg/kg/injection, schedule: Q01DX009 (ip), vehicle: saline with Tween-80
[18] = dose: 3.12 mg/kg/injection, schedule: Q01DX009 (ip), vehicle: Klucel (hydroxypropylcellulose) (HPC)
[19] = dose: 100.0 mg/kg/injection, schedule: Q01DX009 (ip), vehicle: saline
[20] = dose: 200.0 mg/kg/injection, schedule: Q01DX009 (ip), vehicle: saline
[21] = dose: 400.0 mg/kg/injection, schedule: Q01DX009 (ip), vehicle: saline
[22] = dose: 200.0 mg/kg/injection, schedule: Q01DX009 (ip), vehicle: saline with Tween-80
[23] = dose: 400.0 mg/kg/injection, schedule: Q01DX009 (ip), vehicle: saline with Tween-80

SMILES: CC/C(C)=C1\OC(=O)C(C)C(O)C(Cc2cccnc2)NC(=O)C(NC(=O)c2ncccc2O)C(C)OC1=O (stereo not drawn)
- T/C (dose: 0.75 mg/kg/injection, schedule: Q01DX009 (ip), vehicle: Klucel (hydroxypropylcellulose) (HPC)): 118 % of control
- T/C (dose: 1.5 mg/kg/injection, schedule: Q01DX009 (ip), vehicle: Klucel (hydroxypropylcellulose) (HPC)): 98 % of control
- T/C (dose: 3.0 mg/kg/injection, schedule: Q01DX009 (ip), vehicle: Klucel (hydroxypropylcellulose) (HPC)): 99 % of control
- T/C [1]: 87 % of control
- T/C [2]: 97 % of control
- T/C [3]: 96 % of control

SMILES: CS(=O)(=O)OCCN(CCOS(C)(=O)=O)c1ccc(C=Nc2ccc(-c3csc(Cc4ccccc4)n3)cc2)c(Cl)c1
- T/C [4]: 107 % of control and 110 % of control
- T/C [5]: 120 % of control
- T/C [6]: 153 % of control

SMILES: O=C(O)c1cc(S(=O)O)ccc1O
- T/C (dose: 10.0 mg/kg/injection, schedule: Q01DX009 (ip), vehicle: saline): 103 % of control
- T/C (dose: 20.0 mg/kg/injection, schedule: Q01DX009 (ip), vehicle: saline): 106 % of control
- T/C (dose: 40.0 mg/kg/injection, schedule: Q01DX009 (ip), vehicle: saline): 98 % of control

SMILES: F
- T/C [7]: 105 % of control
- T/C (dose: 12.5 mg/kg/injection, schedule: Q01DX009 (ip), vehicle: saline): 107 % of control
- T/C (dose: 12.5 mg/kg/injection, schedule: Q04DX003 (ip), vehicle: saline): 113 % of control
- T/C [8]: 92 % of control
- T/C (dose: 25.0 mg/kg/injection, schedule: Q04DX003 (ip), vehicle: saline): 100 % of control and 124 % of control
- T/C [9]: 94 % of control

SMILES: Cc1c([C@H](C)[C@@H]2NC[C@@H](C)C[C@H]2O)ccc2c1C[C@H]1[C@H]2CC=C2C[C@@H](O)CC[C@@]21C
- T/C (dose: 1.5 mg/kg/injection, schedule: Q01DX009 (ip), vehicle: saline): 97 % of control
- T/C (dose: 3.0 mg/kg/injection, schedule: Q01DX009 (ip), vehicle: saline): 104 % of control

SMILES: C[C@@H]1C(=O)C[C@H]2C(C)(C)CCC[C@]2(C)[C@@]1(O)CCc1ccoc1
- T/C [10]: 99 % of control
- T/C [6]: 89 % of control
- T/C [11]: 93 % of control
- T/C [12]: 86 % of control

SMILES: CCOC1=C(Br)C=CN(S(=O)(=O)c2ccc(C)cc2)c2ccc(OC)cc21
- T/C (dose: 100.0 mg/kg/injection, schedule: Q04DX003 (ip), vehicle: Klucel (hydroxypropylcellulose) (HPC)): 96 % of control
- T/C [13]: 90 % of control
- T/C [14]: 91 % of control

SMILES: CCOC(=O)C(Cc1ccc(O)cc1)NP(=O)(OCCCl)OCCCl (stereo not drawn)
- T/C [13]: 86 % of control
- T/C [14]: 91 % of control

SMILES: C=C(C)[C@@H]1CC[C@]2(CO)CC[C@]3(C)[C@H](CC[C@@H]4[C@@]5(C)CC[C@H](O)C(C)(C)[C@@H]5CC[C@]43C)[C@@H]12
- T/C [11]: 99 % of control
- T/C [12]: 97 % of control
- T/C [15]: 95 % of control

SMILES: COc1cc(C(C)(C)C)cc(OC)c1C(O)(c1c(OC)cc(C(C)(C)C)cc1OC)c1c(OC)cc(C(C)(C)C)cc1OC
- T/C [1]: 102 % of control
- T/C [2]: 116 % of control
- T/C [3]: 109 % of control
- T/C [16]: 121 % of control
- T/C [17]: 109 % of control

SMILES: c1cc2ccc3ccc(C4CO4)c4ccc(c1)c2c34 (stereo not drawn)
- T/C [18]: 95 % of control
- T/C [4]: 96 % of control
- T/C [5]: 100 % of control
- T/C [10]: 86 % of control

SMILES: O=C1c2ccccc2C(=O)c2c(NCCN3CCCCC3)ccc(NCCN3CCCCC3)c21
- T/C (dose: 16.0 mg/kg/injection, schedule: Q01DX009 (ip), vehicle: acid diluted with saline): 107 % of control

SMILES: C=C(Cl)C(=NC(C)(C)C)Nc1ccccc1C
- T/C [18]: 99 % of control
- T/C [4]: 86 % of control
- T/C [5]: 92 % of control
- T/C [10]: 102 % of control

SMILES: CNC1=C(N2CC2C)C(=O)C(NC)=C(N2CC2C)C1=O (stereo not drawn)
- T/C (dose: 1.25 mg/kg/injection, schedule: Q01DX009 (ip), vehicle: saline): 109 % of control

SMILES: C[C@]12CCC(=O)C=C1CC[C@@H]1[C@@H]2[C@@H](O)C[C@@]2(C)[C@H]1CC[C@]2(O)C(=O)CO
- T/C (dose: 40.0 mg/kg/injection, schedule: Q02DX009 (ip), vehicle: Klucel (hydroxypropylcellulose) (HPC)): 87 % of control
- T/C (dose: 80.0 mg/kg/injection, schedule: Q02DX009 (ip), vehicle: Klucel (hydroxypropylcellulose) (HPC)): 102 % of control
- T/C (dose: 160.0 mg/kg/injection, schedule: Q02DX009 (ip), vehicle: Klucel (hydroxypropylcellulose) (HPC)): 92 % of control

SMILES: O=S(=O)(O)CNc1cc(Cl)cc(Cl)c1
- T/C [11]: 108 % of control
- T/C [12]: 94 % of control

SMILES: SCc1ccccn1
- T/C [19]: 112 % of control
- T/C [20]: 115 % of control
- T/C [21]: 105 % of control

SMILES: O=C(OCCCCCCl)c1ccccc1
- T/C [17]: 117 % of control
- T/C [22]: 104 % of control
- T/C [23]: 106 % of control

SMILES: Cc1cc2cc3c(C)cc(=O)oc3c(C)c2o1
- T/C [17]: 119 % of control
- T/C [22]: 117 % of control
- T/C [23]: 100 % of control

SMILES: CC(=O)OC1COC(NC(=O)N(CCCl)N=O)C(OC(C)=O)C1OC(C)=O (stereo not drawn)
- T/C (dose: 0.18 mg/kg/injection, schedule: Q01DX009 (ip), vehicle: saline with Tween-80): 106 % of control
- T/C (dose: 0.2 mg/kg/injection, schedule: Q01DX009 (ip), vehicle: saline with Tween-80): 155 % of control
- T/C (dose: 0.37 mg/kg/injection, schedule: Q01DX009 (ip), vehicle: saline with Tween-80): 118 % of control
- T/C (dose: 0.39 mg/kg/injection, schedule: Q01DX009 (ip), vehicle: saline with Tween-80): 114 % of control
- T/C (dose: 1.5 mg/kg/injection, schedule: Q01DX009 (ip), vehicle: saline with Tween-80): 168 % of control
- T/C (dose: 1.56 mg/kg/injection, schedule: Q01DX009 (ip), vehicle: saline with Tween-80): 170 % of control
- T/C (dose: 3.0 mg/kg/injection, schedule: Q01DX009 (ip), vehicle: saline with Tween-80): 173 % of control
- T/C (dose: 3.12 mg/kg/injection, schedule: Q01DX009 (ip), vehicle: saline with Tween-80): 209 % of control
- T/C (dose: 6.0 mg/kg/injection, schedule: Q01DX009 (ip), vehicle: saline with Tween-80): 162 % of control
- T/C [1]: 190 % of control

SMILES: CN1CCN(CCNc2ccc(CO)c3sc4ccccc4c(=O)c23)CC1
- T/C [10]: 110 % of control
- T/C [6]: 116 % of control

SMILES: S=P(Nc1ccccc1)(Nc1ccccc1)c1ccccc1
- T/C [11]: 104 % of control
- T/C [12]: 96 % of control
- T/C [15]: 87 % of control

SMILES: O=C(O)CCC(=O)CCC(=O)c1ccccc1
- T/C [16]: 95 % of control
- T/C [17]: 100 % of control
- T/C [22]: 93 % of control

SMILES: NC(=O)c1ccc(-c2c3ccccc3cc3c2ccc2ccccc23)cc1
- T/C [16]: 101 % of control
- T/C [17]: 96 % of control

SMILES: COC1=CC(=O)N(C(=O)C2CSC(C(CO)NC(=O)c3csc(/C=N/O)n3)=N2)C1 (stereo not drawn)
- T/C [11]: 97 % of control
- T/C [15]: 106 % of control

SMILES: CCCCCCCCCC(O)CC (stereo not drawn)
- T/C [11]: 98 % of control
- T/C [12]: 96 % of control
- T/C [15]: 100 % of control

SMILES: CC(C)CC(NC(=O)OCc1ccccc1)C(=O)NC(Cc1ccccc1)C(=O)CCl (stereo not drawn) (Cbz-Leu-Phe-CH2Cl; configuration not given here)
- T/C (dose: 1.56 mg/kg/injection, schedule: Q01DX009 (ip), vehicle: saline): 99 % of control
- T/C (dose: 3.12 mg/kg/injection, schedule: Q01DX009 (ip), vehicle: saline): 99 % of control
- T/C [7]: 97 % of control

SMILES: CC#CS(=O)(=O)C(C)(C)C
- T/C [9]: 104 % of control
- T/C (dose: 100.0 mg/kg/injection, schedule: Q04DX003 (ip), vehicle: saline): 106 % of control
- T/C (dose: 200.0 mg/kg/injection, schedule: Q04DX003 (ip), vehicle: saline): 105 % of control

SMILES: CCN(CC)C(=O)C1CN2CCc3cc(OC)c(OC)cc3C2CC1O (stereo not drawn)
- T/C [8]: 90 % of control
- T/C (dose: 50.0 mg/kg/injection, schedule: Q01DX009 (ip), vehicle: saline): 100 % of control
- T/C [19]: 100 % of control
- T/C [20]: 102 % of control
- T/C [21]: 100 % of control

SMILES: Nc1ccn(C2OC(COC(=O)C34CC5CC(CC(C5)C3)C4)C(O)C2O)c(=O)n1 (stereo not drawn)
- T/C [1]: 115 % of control
- T/C [2]: 153 % of control
- T/C [3]: 155 % of control and 191 % of control

SMILES: CCCCOC(=O)C1C(C(=O)OCCCC)C2(Cl)C(Cl)=C(Cl)C1(Cl)C2(Cl)Cl (stereo not drawn)
- T/C [11]: 114 % of control
- T/C [12]: 116 % of control
- T/C [15]: 113 % of control
